# Assay results from US20110319351A1 (priority 2006, published 2011).
# pEC50, pIC50: −log10 of the molar value. “And” between values parts separate entries of the source, which are not always exact repeats. Equal values may be shown once. “Also recorded” adds a separate entry of the source. Read-outs that look alike come from different tables or passages of the source.
# Experiments:
# [1] = tested on: caspase-3 activity in Jurkat cells; test: DEVD-dependent caspase-3 activity, Jurkat; format: cell-based, human; conditions: 100 nM, 12 h
# Protocol: (§1) Measurement of DEVD-dependent caspase-3 activity is a measure of induction of apoptosis, irrespective of the apoptotic pathway activated. The effect of digoxin (100 nM) to induce activation of caspase-3 activity in these tumor cell lines and as well as normal PBMC was examined. Tumor cells (1×10^7 cell/mL) and PBMC (1×10^7 cells/mL) were exposed to ultraviolet irradiation or digoxin (100 nM) for 12 h. The cells were then analyzed for caspase-3 activation using caspase-3 activation assay kit following the manufacturer's instructions.
# (§2) Caspase-3 activity was measured using a caspase-3 assay kit (Sigma-Aldrich Co. St Louis, Mo.). Briefly, tumor cell lines (1×10^7 cells/mL), and PBMC (1×10^7 cells/mL) were cultured in the presence or absence of the indicated concentration of digoxin. Cells were harvested by centrifugation and washed once with PBS. Cells were lysed with lysis buffer (30 mM Tris-HCl, pH 7.5, 150 mM NaCl, 1% Triton X-100, and 10% glycerol) and were centrifuged to remove cell debris, Caspase 3 activity was assayed in the cell lysate according to the manufacturer's instructions. The colorimetric assay is based on spectrophotometric detection of chromophore pNA at 405 nm after cleavage from labelled substrate DEVD-pNA. The level of caspase 3 activity is interpolated from a calibration curve.
# Jurkat cells [2] = test: Induction of apoptosis, annexin V-FITC/propidium iodide flow cytometry, Jurkat; format: cell-based, human; conditions: for pIC50: Homo sapiens, Jurkat; for highest percentage of apoptosis / increase in apoptosis vs untreated control: Jurkat cells; for highest percentage of apoptosis: n=4; for increase in apoptosis vs untreated control: increasing concentration 10 nM-500 nM
# Protocol: (§3) It was determined that the cardiac glycosides (e.g., digoxin and ouabain) selectively induce apoptosis in cancer cells relative to normal non-transformed cells. Through the experiments, some cells were exposed to ultraviolet irradiation as a positive control for induction of apoptosis, whereas cells cultured under normal conditions (95% […]/5% CO2 at 37° C.) acted as the negative control (see Methods). The percentage of counted cells in the lower and upper right hand quadrants are indicative of cells in early and late apoptosis, respectively. The viable cells are at the lower left quadrant. The figures that follow are summaries of data stemming from analysis of percent of cell count undergoing apoptosis as measured in FIG. 1.
# (§4) Cell lines used in this study included: Jurkat E6-1, an acute human T-lymphoblastic leukemia cell line generated from a person; Daudi, a human B-lymphoblastoid line derived from Burkitt's lymphoma patient and K 562 derived from a human chronic myelogenous leukemia cell line. All cell lines were maintained in RPMI 1640 medium (Gibco Laboratories, Grand Island, N.Y.) supplemented with 10% fetal calf serum (FCS), 10 mM HEPES, 2 mM glutamine, 50 IU/mL penicillin, 50 μg/mL streptomycin, 0.1 mM non-essential amino acids and 1 mM sodium pyruvate and 0.5 μg/mL amphotericin B. Cells were cultured in a 5% CO2 atmosphere in a thermostatically maintained incubator (37° C.) in standard cell culture flasks. Cell cultures were split every 2-3 days and passage number noted.
# (§5) Tumor cell lines (5×10^5 cells/well) and PBMC (1×10^6 cells/well) were cultured in 24-well plates in the presence or absence of various concentrations of digoxin or ouabain for 48 h. The cells were harvested, washed twice in PBS, and analyzed for induction of apoptosis by annexin V-FITC/propidium iodide (PI) method (BD Bioscience, Lincoln Park, N.J.) according to the manufacturer's instructions. Cells were washed once with 1× binding buffer and stained with annexin V-FITC (5 μL) and PI (10 μL) for 15 minutes in the dark. Apoptosis was determined by flow cytometric analyses on a FACScan (BD Biosciences, Lincoln Park, N.J.). Ten thousand cells were analyzed per sample. In experiments where the effect of PHA was studied, cells were seeded accordingly in a 24-well plate and stimulated with PHA (1 μg/mL) for a minimum of 2 hours before treatment with the indicated concentrations of ouabain or digoxin. As a positive control for apoptosis, cells were exposed to ultra violet irradiation for […] and apoptosis was analyzed according to the method described above.
# [3] = tested on: caspase-3 activity in K 562 cells; test: DEVD-dependent caspase-3 activity, K 562; format: cell-based, human; conditions: 100 nM, 12 h
# Protocol: as §1, §2
# [4] = tested on: peripheral blood mononuclear cells (PBMC); test: Induction of apoptosis, annexin V-FITC/propidium iodide flow cytometry, PBMC; format: cell-based, human; conditions: increasing concentration, 48 h
# Protocol: as §3, with “1. […]” for “1.”
# (§6) Tumor cell lines (5×10^5 cells/well) and PBMC (1×10^6 cells/well) were cultured in 24-well plates in the presence or absence of various concentrations of digoxin or ouabain for 48 h. The cells were harvested, washed twice in PBS, and analyzed for induction of apoptosis by annexin V-FITC/propidium iodide (PI) method (BD Bioscience, Lincoln Park, N.J.) according to the manufacturer's instructions. […] Apoptosis was determined by flow cytometric analyses on a FACScan (BD Biosciences, Lincoln Park, N.J.). Ten thousand cells were analyzed per sample. […]
# [5] = tested on: caspase-3 activity in PBMC; test: DEVD-dependent caspase-3 activity, PBMC; format: cell-based, human; conditions: 100 nM, 12 h
# Protocol: as §1, §2
# [6] = biological target: T1, porcine cerebral cortex Na,K-ATPase; format: biochemical
# T1 construct: other: 50% response relative to the m
# Text: In the current study, the sensitivity of cardiac glycosides on induction of apoptosis in lymphoblastic cancer cells was examined. The efficacy of digoxin and ouabain in inducing apoptosis in these cell lines was compared with NKA catalytic inhibition activity using porcine cerebral cortex (Table 1). The porcine cerebral cortex (PCC) is a model system known to express the three isoforms of NKA consisting of the three different alpha subunits (α1, α2 and α3) (Rose et al., Clin Chem, 40, 1674-1685 (1994)). The alpha subunit of the NKA contains the binding site of the cardiac glycosides, and like most cationic transporter proteins, the beta subunit act as chaperon, stabilizing the correct assembly of the alpha subunit and facilitating the delivery of the protein to the plasma membrane (Blanco et al., Am J Physiol, 275 (Renal Physiol. 44), F633-F650 (1998)).
# In order to compare the concentrations of digoxin or ouabain that affect the induction of apoptosis with those that inhibit the sodium pump, the inhibitory potency of digoxin and ouabain on porcine cerebral cortex (PCC) Na.,K-ATPase catalytic activity was examined.
# The values were calculated as 50% response relative to the maximum NKA activity on the PCC or maximum apoptosis on Jurkat and Daudi cells within the concentration ranges tested.
# Inhibition of sodium pump catalytic activity by cardiac glycosides was measured by the release of phosphate upon hydrolysis of ATP (Qazzaz et al., Endocrinology, 141, 3200-3209 (2000)).
# PBMC = test: Apoptosis after PHA stimulation, PBMC; format: cell-based, human; conditions: PHA 1 μg/mL, digoxin 10 nM-100 nM, 48 h
# Protocol: as §5
# K 562 cells = test: Induction of apoptosis, annexin V-FITC/propidium iodide flow cytometry, K 562; format: cell-based, human; conditions: increasing concentrations, 48 h
# Protocol: as §3, with “1. […]” for “1.”
# as §6
# Daudi cells = test: Induction of apoptosis, annexin V-FITC/propidium iodide flow cytometry, Daudi; format: cell-based, human; conditions: for highest percentage of apoptosis / increase in apoptosis vs untreated control: Daudi cells; for highest percentage of apoptosis: 500 nM, n=4; for increase in apoptosis vs untreated control: increasing concentration; for pIC50: Homo sapiens, Daudi
# Protocol: as §3, §4, §5
# Jurkat cells [7] = test: Apoptosis after PHA stimulation, Jurkat; format: cell-based, human; conditions: PHA 1 μg/mL, digoxin 10 nM and 100 nM, 48 h
# Protocol: as §5
# [8] = Kometiani et al. 2005; cited from earlier work
# [9] = tested on: caspase-3 activity in Daudi cells; test: DEVD-dependent caspase-3 activity, Daudi; format: cell-based, human; conditions: 100 nM, 12 h
# Protocol: as §1, §2
# [10] = tested on: human lymphoblastic cell lines; test: Induction of apoptosis in the cancer cell lines (Jurkat and Daudi together); format: cell-based; conditions: read-out: concentration needed to induce a 50% apoptotic response
# Protocol: as §5
# [11] = 50% response relative to maximum apoptosis within the concentration ranges tested, 48 h, read-out: IC50, Induction of apoptosis on acute T-cell lymphoblastic leukemic cells (Jurkat)
# [12] = range of the IC50, read-out: Ranges of IC50, Induction of apoptosis on Jurkat
# [13] = 50% response relative to the maximum NKA activity on the PCC, read-out: IC50, Inhibitory Potency on Porcine cerebral cortex (PCC) NKA catalytic activity
# [14] = range of the IC50, read-out: Range of IC50, Inhibitory Potency on PCC NKA catalytic activity
SMILES,pIC50 (Jurkat cells [2]; [11]),pIC50 (Jurkat cells [2]; [12]),increase in apoptosis vs untreated control (Jurkat cells [2]; 48 h),increase in apoptosis vs untreated control [4],"pIC50 [6, 13]","pIC50 [6, 14]",increase in apoptosis vs untreated control (K 562 cells),highest percentage of apoptosis (Daudi cells; 48 h),increase in apoptosis vs untreated control (Daudi cells; 48 h),further results
"C[C@H]1O[C@@H](O[C@H]2[C@@H](O)C[C@H](O[C@H]3[C@@H](O)C[C@H](O[C@H]4CC[C@@]5(C)[C@H](CC[C@@H]6[C@@H]5C[C@@H](O)[C@]5(C)[C@@H](C7=CC(=O)OC7)CC[C@]65O)C4)O[C@@H]3C)O[C@@H]2C)C[C@H](O)[C@@H]1O [Digoxin, digoxin]",7.62,7.25 to 7.96,significantly (P<0.05) led to increases in apoptosis,neither digoxin nor ouabain significantly induced apoptosis; also recorded: did not significantly (P>0.05) lead to increase in apoptosis,6.04,6.00 to 6.09,neither digoxin nor ouabain significantly induced apoptosis; also recorded: did not significantly (P>0.05) lead to increases in apoptosis,83.2±7.3% and 83.2%±7.3%,significantly (P<0.05) led to increase in apoptosis,"caspase-3 activity relative to the untreated controls [1]: 8 fold; highest percentage of apoptosis (Jurkat cells [2]; 500 nM, 48 h): 50.2±4.5% and 50.2%±4.5%; caspase-3 activity relative to the untreated controls [3]: no such increases; caspase-3 activity relative to the untreated controls [5]: no such increases; percent of apoptosis in the presence of PHA (PBMC): No such effect; percent of apoptosis in the presence of PHA (PBMC; listed as digoxin): No such synergistic effect; also recorded: no such synergistic increase; pIC50 (Daudi cells; 48 h, read-out: IC50, Induction of apoptosis on B-cell Burkitt's lymphoma cells (Daudi)): 7.32; pIC50 (Daudi cells; read-out: Ranges of IC50, Induction of apoptosis on Daudi): 7.19 to 7.46; percent of apoptosis in the presence of PHA (Jurkat cells [7]): synergistically increased; percent of apoptosis in the presence of PHA (Jurkat cells [7]; listed as digoxin): synergistically induced apoptosis; also recorded: synergistically increased; therapeutic concentrations in blood [8]: approximately 2 nM; caspase-3 activity relative to the untreated controls [9]: 7 fold; pEC50 [10]: 7.40 to 7.70"
"C[C@@H]1O[C@@H](O[C@H]2C[C@@H](O)[C@]3(CO)[C@H]4[C@H](O)C[C@]5(C)[C@@H](C6=CC(=O)OC6)CC[C@]5(O)[C@@H]4CC[C@]3(O)C2)[C@H](O)[C@H](O)[C@H]1O [Ouabain, ouabain]",7.59,7.32 to 7.72,significantly (P<0.05) led to increases in apoptosis,neither digoxin nor ouabain significantly induced apoptosis; also recorded: did not significantly (P>0.05) lead to increase in apoptosis,6.22,6.19 to 6.26,neither digoxin nor ouabain significantly induced apoptosis; also recorded: did not significantly (P>0.05) lead to increases in apoptosis,81.1±6.1%,significantly (P<0.05) led to increase in apoptosis,"highest percentage of apoptosis (Jurkat cells [2]; 100 nM, 48 h): 47.6±3.9% and 47.6±5.6%; pIC50 (Daudi cells; 50% response relative to maximum apoptosis within the concentration ranges tested, 48 h, read-out: IC50, Induction of apoptosis on B-cell Burkitt's lymphoma cells (Daudi)): 7.40; pIC50 (Daudi cells; range of the IC50, read-out: Ranges of IC50, Induction of apoptosis on Daudi): 7.25 to 7.44; pEC50 ([10]; based on the maximum apoptosis at 500 nM, for each of the cancer cell lines): 7.40 to 7.70"
